Test results from patent US7595300B2, “7-quinolyl ketolide antibacterial agents” (priority 2005, dated 2009).
Values after ≈ are worked out from the molar mass of the structure shown. Like-named read-outs stand apart in the source and are kept apart here. Values belong to the compound of their own block, whether it stands above or below them.

Assays:
P. acnes = assay: MIC, NCCLS Reference Agar Dilution Method for anaerobic bacteria; type: cell-based, Propionibacterium acnes
Experimental: (§1) Minimum inhibitory concentrations (“MICs”) were determined by the NCCLS Reference Agar Dilution Method (M11-A5, Vol. 21, No. 2) for anaerobic bacteria. A panel of 84 antibiotic-susceptible and resistant strains of Propionibacteria from distinct geographic locations were selected. Following revival from frozen stocks, each strain was purity plated onto Wilkins Chalgren Agar, pH 7.2 (Oxoid, UK), and the appropriate antibiotic resistance/susceptibility phenotype was confirmed by antibiotic disc testing. Each strain was subjected to an agar dilution MIC assay. […] The inocula for each batch of strains were prepared from 7-day old Wilkins Chalgren Agar plate cultures by resuspension of colonies in Wilkins Chalgren Anaerobe broth, pH 7.2 (Oxoid, UK) to an optical density (OD600) of 0.2±0.02. The inoculum (1.0-2.0 μL) for each strain was applied to a Wilkins Chalgren Agar MIC plate in a grid pattern using a Multipoint Inoculator (Denley, UK). All agar plates were incubated at 37° C. for 3 days under anaerobic conditions in AnaeroPack 7 liter rectangular jars (Mitsubishi Gas Chemical Company, Inc., Japan).

P. granulosum = assay: as above; type: cell-based, Propionibacterium granulosum
Experimental: as §1

anesthetized guinea pigs = assay: Cardiovascular safety, QTc interval in anesthetized guinea pigs, i.v. bolus; type: in vivo, guinea pig; conditions: for QTc prolongation (% above vehicle): anesthetized guinea pig, incremental i.v. bolus doses 0.47 to 15 mg/kg; for effect on the QTc interval in the anesthetized guinea pig: cumulative doses up to 30 mg/kg, relative to vehicle controls
Experimental: (§2) Total doses of drug (0.47, 0.94, 1.88, 3.75, 7.5, and 15 mg/kg) or equivalent volumes of vehicle were administered incrementally as an i.v. bolus to groups of 6 anesthetized rats or guinea pigs at 0, 15, 30, 45, 60, and 75 minutes. Hemodynamic parameters including mean arterial pressure (MAP) and heart rate (HR), and ECG parameters (QT and PR intervals and QRS duration) were recorded. For the rat, injection of vehicle gave a 16% increase in QT interval over baseline. For the guinea pig, injection of vehicle gave a 3% increase in QT interval over baseline.

[1] = Pharmacokinetics in the mouse, plasma and lung tissue; type: in vivo; conditions: oral gavage 10 mg/kg; for Lung AUC / Lung Cmax: mouse lung tissue; for Plasma AUC / Plasma Cmax: mouse plasma
Experimental: The pharmacokinetics of compounds of formula (VIII) and compounds of formula (II) and (III) were measured in the mouse. Compounds were administered either intravenously (i.v.) at 1 mg/kg, or per oral gavage (p.o.) at 10 mg/kg. Plasma samples were taken and analyzed by LC/MS-MS. For lung tissue pharmacokinetics, lungs were removed and homogenized, followed by analyzis by LC/MS-MS.

anesthetized rats = assay: Cardiovascular safety, QT interval in anesthetized rats, i.v. bolus; type: in vivo, rat; conditions: anesthetized rat, incremental i.v. bolus doses 0.47 to 15 mg/kg
Experimental: as §2

S. pyogenes = assay: MIC, NCCLS broth microdilution, respiratory pathogens; type: cell-based; conditions: Streptococcus pyogenes; for MIC50: read-out: MIC50; for MIC90: read-out: MIC90
Experimental: (§3) Minimum inhibitory concentrations (“MICs”) were determined by the NCCLS broth microdilution procedure for susceptibility testing for bacteria that grow aerobically (National Committee for Clinical Laboratory Standards, 1997. Methods for dilution antimicrobial susceptibility tests for bacteria that grow aerobically, 4th ed. Approved standard. NCCLS Document M7-A4. National Committee for Clinical Laboratory Standards, Villanova, Pa.). Stock solutions were prepared on the day of the test and appropriate aliquots were added to cation adjusted Mueller-Hinton broth (CAMHB, DIFCO) or Haemophilus test media. Two-fold serial dilutions were prepared and added to wells in microtiter plates. Final test concentrations ranged from 8 to 0.004 ug/ml. Broth cultures of bacteria inoculated from growth on overnight plates for all test bacteria except Streptococcus pneumoniae and Haemophilus influenzae were incubated at 35° C. and then adjusted to the Kirby Bauer standard and diluted in CAMHB to achieve a final inoculum concentration of approximately 5×10^5 CFU/ml. Inocula for S. pneumoniae and H. influenzae were prepared by directly suspending colonies from an overnight plate, adjusting the turbidity and diluting as above. S. pneumoniae media was supplemented with 3% lysed horse blood. All plates were incubated in ambient air at 35° C. for 20-24 h for S. pneumoniae and Haemophilus influenzae and 16-20 h for all other bacteria.

M. catarrhalis = assay: as above; type: cell-based; conditions: Moraxella catarrhalis, M. catarrhalis
Experimental: as §3

Haemophilus influenzae = assay: as above; type: cell-based; conditions: H. influenzae
Experimental: as §3

Streptococcus pneumoniae = assay: as above; type: cell-based; conditions: S. pneumoniae; for MIC50: read-out: MIC50; for MIC90: read-out: MIC90
Experimental: as §3

[2] = marker RNA 2057, phenotype EryR
[3] = marker RNA 2058, phenotype EryR
[4] = marker RNA 2059, phenotype EryR

SMILES: CC[C@H]1OC(=O)[C@H](C)[C@@H](O[C@H]2C[C@@](C)(OC)[C@@H](O)[C@H](C)O2)[C@H](C)[C@@H](O[C@@H]2O[C@H](C)C[C@H](N(C)C)[C@H]2O)[C@](C)(O)C[C@@H](C)C(=O)[C@H](C)[C@@H](O)[C@]1(C)O [erythromycin]
- MIC range (P. acnes; [2]): 4 µg/mL (≈ 5.45 µM)
- MIC range (P. granulosum; marker none, phenotype none): 0.06 to 8 µg/mL

- Lung AUC [1]: 2.3 ug/mL-h
- Lung Cmax [1]: 800 ng/mL
- Plasma AUC [1]: 0.7 ug/mL-h
- Plasma Cmax [1]: 400 ng/mL
SMILES: CC1CC(N(C)C)C(O)C(O[C@@H]2[C@@H](C)C(=O)[C@@H](C)C(=O)O[C@H](CCF)[C@@]3(C)OC(=O)N[C@@H]3[C@@H](C)C(=O)[C@H](C)C[C@@]2(C)OC/C=C/c2cnc3ccccc3c2)O1 (stereo partly shown) [A]
- QTc prolongation (% above vehicle) (anesthetized guinea pigs): 10 % above vehicle
- effect on the QTc interval in the anesthetized guinea pig (anesthetized guinea pigs): pronounced, dose-dependent prolongation of the QT interval
- QT prolongation (% above vehicle) (anesthetized rats): 8 % above vehicle

- Lung AUC [1]: 2.2 ug/mL-h
- Lung Cmax [1]: 450 ng/mL
- Plasma AUC [1]: 0.54 ug/mL-h
- Plasma Cmax [1]: 210 ng/mL
SMILES: CC1CC(N(C)C)C(O)C(O[C@@H]2[C@@H](C)C(=O)[C@@H](C)C(=O)O[C@H](CCF)[C@@]3(C)OC(=O)N[C@@H]3[C@@H](C)C(=O)[C@H](C)C[C@@]2(C)OC/C=C/c2ccc3nccnc3c2)O1 (stereo partly shown) [G]
- QTc prolongation (% above vehicle) (anesthetized guinea pigs): 1 % above vehicle
- effect on the QTc interval in the anesthetized guinea pig (anesthetized guinea pigs): moderate, dose-dependent increase in the QTc interval that slowly returned to baseline
- QT prolongation (% above vehicle) (anesthetized rats): 12 % above vehicle

- MIC50 (S. pyogenes; genotype ermB): > 8 µg/mL
- MIC90 (S. pyogenes; genotype ermB): > 8 µg/mL
- MIC50 (S. pyogenes; genotype mef): 8 µg/mL (≈ 10.7 µM)
- MIC90 (S. pyogenes; genotype mef): > 8 µg/mL
- MIC50 (S. pyogenes; genotype sensitive): 0.06 µg/mL (≈ 0.0802 µM)
- MIC90 (S. pyogenes; genotype sensitive): 0.06 µg/mL (≈ 0.0802 µM)
- MIC50 (M. catarrhalis; read-out: MIC50): 0.12 µg/mL (≈ 0.16 µM)
- MIC90 (M. catarrhalis; read-out: MIC90): 0.12 µg/mL (≈ 0.16 µM)
- MIC50 (Haemophilus influenzae; resistant): > 8 µg/mL
- MIC90 (Haemophilus influenzae; resistant): > 8 µg/mL
- MIC50 (Haemophilus influenzae; sensitive): 8 µg/mL (≈ 10.7 µM)
- MIC90 (Haemophilus influenzae; sensitive): 8 µg/mL (≈ 10.7 µM)
- MIC50 (Streptococcus pneumoniae; 20 h, genotype ermB + mef): > 8 µg/mL
- MIC90 (Streptococcus pneumoniae; genotype ermB + mef): > 8 µg/mL
- MIC50 (Streptococcus pneumoniae; genotype ermB): > 8 µg/mL
- MIC90 (Streptococcus pneumoniae; genotype ermB): > 8 µg/mL
- MIC50 (Streptococcus pneumoniae; genotype mef): 4 µg/mL (≈ 5.35 µM)
- MIC90 (Streptococcus pneumoniae; genotype mef): 8 µg/mL (≈ 10.7 µM)
- MIC50 (Streptococcus pneumoniae; genotype sensitive): 0.06 µg/mL (≈ 0.0802 µM)
- MIC90 (Streptococcus pneumoniae; genotype sensitive): 0.06 µg/mL (≈ 0.0802 µM)
SMILES: CC[C@H]1OC(=O)[C@H](C)[C@@H](O[C@H]2C[C@@](C)(OC)[C@@H](O)[C@H](C)O2)[C@H](C)[C@@H](O[C@@H]2O[C@H](C)C[C@H](N(C)C)[C@H]2O)[C@](C)(OC)C[C@@H](C)C(=O)[C@H](C)[C@@H](O)[C@]1(C)O [clarithromycin, reference compound]

SMILES: CCC[C@@H]1C[C@@H](C(=O)N[C@@H]([C@H]2O[C@H](SC)[C@H](O)[C@@H](O)[C@H]2O)[C@H](C)Cl)N(C)C1 [clindamycin]
- MIC range (P. acnes; marker RNA 1058, phenotype TetR): 0.25 to 256 µg/mL
- MIC range (P. acnes; marker RNA 1058/2058, phenotype TetR, EryR): 256 µg/mL (≈ 602 µM)
- MIC range (P. acnes; marker RNA 1058/2059, phenotype TetR, EryR): 8 to 16 µg/mL
- MIC range (P. acnes; [2]): 1 µg/mL (≈ 2.35 µM)
- MIC range (P. acnes; [3]): 8 to 256 µg/mL
- MIC range (P. acnes; marker RNA 2058, phenotype EryR, TetR): 2 to 256 µg/mL
- MIC range (P. acnes; [4]): 8 to 256 µg/mL
- MIC range (P. acnes; marker RNA 2059, phenotype EryR, TetR): 8 to 32 µg/mL
- MIC range (P. acnes; marker ermX, phenotype EryR): >512 µg/mL
- MIC range (P. acnes; marker none, phenotype none): 0.125 to 1 µg/mL
- MIC range (P. acnes; marker unknown, phenotype ClindR): 4 µg/mL (≈ 9.41 µM)
- MIC range (P. granulosum; [3]): 512 µg/mL (≈ 1200 µM)
- MIC range (P. granulosum; [4]): 2 to 512 µg/mL
- MIC range (P. granulosum; marker ermX, phenotype EryR): 512 µg/mL (≈ 1200 µM)
- MIC range (P. granulosum; marker none, phenotype none): 0.06 to 0.25 µg/mL

SMILES: CC1CC(N(C)C)C(O)C(O[C@@H]2[C@@H](C)C(=O)[C@@H](C)C(=O)O[C@H](CCF)[C@@]3(C)OC(=O)N[C@@H]3[C@@H](C)C(=O)[C@H](C)C[C@@]2(C)OC/C=C/c2cnc3cccnc3c2)O1 (stereo partly shown) [D]
- QTc prolongation (% above vehicle) (anesthetized guinea pigs): 14 % above vehicle
- effect on the QTc interval in the anesthetized guinea pig (anesthetized guinea pigs): pronounced, dose-dependent prolongation of the QT interval
- QT prolongation (% above vehicle) (anesthetized rats): 28 % above vehicle

SMILES: CC1CC(N(C)C)C(O)C(O[C@@H]2[C@@H](C)C(=O)[C@@H](C)C(=O)O[C@H](CCF)[C@@]3(C)OC(=O)N[C@@H]3[C@@H](C)C(=O)[C@H](C)C[C@@]2(C)OC/C=C/c2ccc3ncccc3c2)O1 (stereo partly shown) [C]
- QTc prolongation (% above vehicle) (anesthetized guinea pigs): 12 % above vehicle
- effect on the QTc interval in the anesthetized guinea pig (anesthetized guinea pigs): pronounced, dose-dependent prolongation of the QT interval
- QT prolongation (% above vehicle) (anesthetized rats): 20 % above vehicle

- Lung AUC [1]: 19.0 ug/mL-h
- Lung Cmax [1]: 3300 ng/mL
- Plasma AUC [1]: 3.9 ug/mL-h
- Plasma Cmax [1]: 1000 ng/mL
SMILES: CC1CC(N(C)C)C(O)C(O[C@@H]2[C@@H](C)C(=O)[C@](C)(F)C(=O)O[C@H](CCF)[C@@]3(C)OC(=O)N[C@@H]3[C@@H](C)C(=O)[C@H](C)C[C@@]2(C)OC/C=C/c2cnc3ccccc3c2)O1 (stereo partly shown) [B]
- QTc prolongation (% above vehicle) (anesthetized guinea pigs): 3 % above vehicle
- effect on the QTc interval in the anesthetized guinea pig (anesthetized guinea pigs): smaller yet persistent increase in QTc at the highest dose
- QT prolongation (% above vehicle) (anesthetized rats): 10 % above vehicle
